Test results published in US9957288B2, “Pyrabactin analogues to modulate plant development” (Universiteit Gent, priority 2014, dated 2018).

How the values were obtained:
[1] = test system: Arabidopsis thaliana Columbia (Col0) seedlings; assay: Primary root elongation of etiolated seedlings on compound medium; assay type: in vivo; settings: in vivo
[2] = test system: Arabidopsis thaliana Columbia (Col0) seedlings; assay: Lateral root initiation (lateral roots + lateral root primordia, number and density); assay type: in vivo; settings: in vivo
[3] = test system: Arabidopsis thaliana seeds; assay: Arabidopsis thaliana seed germination assay; assay type: in vivo; settings: in vivo
tobacco epidermal strips = assay: Stomatal closure assay on epidermal strips; assay type: cell-based, Nicotiana tabacum
[4] = test system: etiolated Arabidopsis thaliana seedlings; settings: in vivo
[5] = test system: Arabidopsis thaliana seedlings; settings: in vivo

Structure (SMILES): CCOP(=O)(OCc1ccccn1)c1ccccc1 (stereo not shown) [Analogue D2, Ethyl (pyridin-2-ylmethyl) phenylphosphonate]
- PR [1]: 0
- effect on primary root growth [1]: did not show a significant effect
- LR [2]: 0
- effect on LR+ LRP density (per cm primary root) [2]: did not significantly affect the LR numbers
- effect on number of LR+ LRP (lateral root initiation) [2]: did not have a significant effect
- Seed germination [3]: 0
- Stomata (tobacco epidermal strips): 0
- effect on stomatal aperture (tobacco epidermal strips): did not affect the size of the stomatal aperture
- AR [4]: 0
- Shoot [5]: 0

Structure (SMILES): CCOP(=O)(Nc1cccnc1)c1ccccc1 (stereo not shown) [Analogue D3, Ethyl N-(pyridin-3-yl)-P-(phenyl)phosphonamidate]
- PR [1]: 0
- effect on primary root growth [1]: did not show a significant effect
- LR [2]: 0
- effect on LR+ LRP density (per cm primary root) [2]: increased the LR density
- effect on number of LR+ LRP (lateral root initiation) [2]: enhanced lateral root induction
- Seed germination [3]: 0
- Stomata (tobacco epidermal strips): 0
- effect on stomatal aperture (tobacco epidermal strips): intermediate stomatal closure
- AR [4]: 0
- Shoot [5]: 0

Structure (SMILES): CCOP(=O)(NCc1ccccn1)c1ccc(F)c2ccccc12 (stereo not shown) [Analogue E2, Ethyl N-(pyridin-2-ylmethyl)-P-(4-fluoronapht-1-yl)phosphonamidate]
- PR [1]: 0
- effect on primary root growth [1]: did not show a significant effect
- LR [2]: +
- effect on LR+ LRP density (per cm primary root) [2]: reduced the numbers of LR+ LRP similarly to ABA
- effect on number of LR+ LRP (lateral root initiation) [2]: modest to weak inhibitors of lateral root formation
- Seed germination [3]: 0
- Stomata (tobacco epidermal strips): +++
- stomata closure to % of the start opening (tobacco epidermal strips): 50%
- time to 50% of closure of stomata (tobacco epidermal strips): 30 min
- AR [4]: −
- effect on adventitious root formation [4]: stimulated AR formation
- Shoot [5]: −
- effect on shoot development [5]: stimulated the development of leaves in comparison with the control

Structure (SMILES): CCOP(=O)(NCc1cccnc1)c1ccc(Br)c2ccccc12 (stereo not shown) [Analogue E3, Ethyl N-(pyridin-3-ylmethyl)-P-(4-bromonapht-1-yl)phosphonamidate]
- PR [1]: 0
- effect on primary root growth [1]: did not show a significant effect
- LR [2]: +
- effect on LR+ LRP density (per cm primary root) [2]: reduced the numbers of LR+ LRP similarly to ABA
- effect on number of LR+ LRP (lateral root initiation) [2]: modest to weak inhibitors of lateral root formation
- Seed germination [3]: 0
- Stomata (tobacco epidermal strips): ++
- effect on stomatal aperture (tobacco epidermal strips): intermediate stomatal closure
- AR [4]: −
- Shoot [5]: 0

Structure (SMILES): CCOP(=O)(NCc1ccccc1)c1ccc(Br)c2ccccc12 (stereo not shown) [Analogue E4, Ethyl N-(benzyl)-P-(4-bromonapht-1-yl)phosphonamidate]
- PR [1]: +++
- effect on primary root growth [1]: strongly inhibited primary root growth
- LR [2]: +++
- effect on LR+ LRP density (per cm primary root) [2]: strong density reduction (even stronger than ABA)
- effect on number of LR+ LRP (lateral root initiation) [2]: strong inhibitors
- Seed germination [3]: +
- effect on seed germination [3]: did not inhibit the germination
- Stomata (tobacco epidermal strips): ++
- effect on stomatal aperture (tobacco epidermal strips): intermediate stomatal closure
- AR [4]: +++
- cellular toxicity (inhibitory effect on plant development) [4]: exhibits cellular toxicity at the concentration used
- effect on adventitious root formation [4]: reduction of adventitious root formation, respectively stronger or similar to pyrabactin
- Shoot [5]: +++
- effect on shoot development [5]: strong inhibition of the seedling's shoot development

Structure (SMILES): CCOP(=O)(NCc1cccnc1)c1ccc(F)c2ccccc12 (stereo not shown) [Analogue E5, Ethyl N-(pyridin-3-ylmethyl)-P-(4-fluoronapht-1-yl)phosphonamidate]
- PR [1]: +
- effect on primary root growth [1]: modest inhibitors of primary root elongation
- LR [2]: +
- effect on number of LR+ LRP (lateral root initiation) [2]: modest to weak inhibitors of lateral root formation
- Seed germination [3]: +++
- effect on seed germination [3]: significant reduction of the percentage of germinating seeds
- Stomata (tobacco epidermal strips): +
- effect on stomatal aperture (tobacco epidermal strips): intermediate stomatal closure
- AR [4]: 0
- Shoot [5]: 0
